Values quoted from earlier work as cited in patent EP2117510B1, “PARENTERAL PHARMACEUTICAL COMPOSITION AND METHOD FOR PREPARING THE SAME” (Physica Pharma, priority 2007, dated 2008).

Conditions: water, room temperature (environ 22° C)

SMILES: CC(C)c1cccc(C(C)C)c1O [Propofol, 2,6-diisopropylphénol]
- solubilité dans l'eau: ~160 µg/mL
